The CheMixHub viscosity set

Test: xn = mol fraction of the nth substance listed

CC(C)(C)N + COCCO
308.15 K, 101 kPa
Conditions	viscosity [mPa·s]
x2 = 0.13	0.5293
x2 = 0.2516	0.6631
x2 = 0.3656	0.7913
x2 = 0.4727	0.9167
x2 = 0.5735	1.035
x2 = 0.6668	1.083
x2 = 0.7583	1.115
x2 = 0.8432	1.152
x2 = 0.9237	1.187

BrC(Br)Br + CS(C)=O
Conditions	viscosity [mPa·s]
298 K, 101.3 kPa, x1 = 0.0899	2.155
298 K, 101.3 kPa, x1 = 0.1708	2.427
298 K, 101.3 kPa, x1 = 0.3448	2.816
298 K, 101.3 kPa, x1 = 0.4446	2.945
298 K, 101.3 kPa, x1 = 0.5453	2.944
298 K, 101.3 kPa, x1 = 0.6466	2.762
298 K, 101.3 kPa, x1 = 0.7553	2.544
298 K, 101.3 kPa, x1 = 0.8619	2.192
318 K, 101.33 kPa, x1 = 0.1216	1.568
318 K, 101.33 kPa, x1 = 0.2541	1.787
318 K, 101.33 kPa, x1 = 0.443	1.978
318 K, 101.33 kPa, x1 = 0.5441	1.982
318 K, 101.33 kPa, x1 = 0.5955	1.983
318 K, 101.33 kPa, x1 = 0.8193	1.716

C=Cc1ccccc1 + CS(C)=O
viscosity [mPa·s], 101.33 kPa
Conditions	x1 = 0.1017	x1 = 0.2022	x1 = 0.3096	x1 = 0.3987	x1 = 0.501	x1 = 0.6007	x1 = 0.6968	x1 = 0.801	x1 = 0.896
298.15 K	1.642	1.475	1.326	1.237	1.139	1.058	0.982	0.887	0.802
303.15 K	1.482	1.343	1.191	1.112	1.044	0.976	0.91	0.827	0.749
308.15 K	1.335	1.204	1.083	1.014	0.957	0.899	0.837	0.763	0.7

CCCCCCCCO + CS(C)=O
101 kPa
Conditions	viscosity [mPa·s]
303.15 K, x2 = 0.1888	4.267
303.15 K, x2 = 0.3612	3.296
303.15 K, x2 = 0.519	2.593
303.15 K, x2 = 0.6642	2.26
303.15 K, x2 = 0.7982	1.965
303.15 K, x2 = 0.9223	1.757
313 K, x2 = 0.1243	3.69
313 K, x2 = 0.2177	3.282
313 K, x2 = 0.4192	2.668
313 K, x2 = 0.5194	2.442
313 K, x2 = 0.6221	2.22
313 K, x2 = 0.714	2.034
313 K, x2 = 0.8145	1.894
313 K, x2 = 0.902	1.664

O=c1oc2ccccc2c(O)c1C(c1ccccc1)c1c(O)c2ccccc2oc1=O + CS(C)=O
viscosity [mPa·s], 100 kPa
Conditions	x1 = 0.0007822	x1 = 0.001562	x1 = 0.002337	x1 = 0.003116	x1 = 0.003894	x1 = 0.004664
293.15 K	2.346	2.469	2.592	2.715	2.839	2.963
298.15 K	2.068	2.179	2.286	2.394	2.502	2.611
303.15 K	1.883	1.966	2.063	2.161	2.256	2.352
308.15 K	1.684	1.755	1.825	1.909	1.992	2.076
313.15 K	1.519	1.578	1.638	1.713	1.789	1.862

CCC(C)(C)OC + Cc1cccc(C)c1
viscosity [mPa·s], 100 kPa
Conditions	x1 = 0.0521	x1 = 0.1462	x1 = 0.2667	x1 = 0.4165	x1 = 0.4774	x1 = 0.5331	x1 = 0.6068	x1 = 0.7371	x1 = 0.8642	x1 = 0.9512
293.15 K	0.603	0.584	0.563	0.539	0.53	0.521	0.509	0.487	0.464	0.448
303.15 K	0.542	0.531	0.518	0.499	0.489	0.48	0.468	0.447	0.426	0.417
313.15 K	0.484	0.47	0.455	0.439	0.433	0.427	0.419	0.404	0.386	0.375

BrC(Br)Br + Cc1ccccc1
viscosity [mPa·s], 101 kPa
Conditions	x1 = 0.1032	x1 = 0.1993	x1 = 0.2989	x1 = 0.3999	x1 = 0.4985	x1 = 0.5956	x1 = 0.6977	x1 = 0.7959	x1 = 0.8985
298.15 K	0.6593	0.7557	0.8686	0.9945	1.136	1.287	1.449	1.622	1.801
303.15 K	0.6236	0.7133	0.817	0.936	1.068	1.207	1.358	1.519	1.688
308.15 K	0.5877	0.6722	0.7592	0.8765	1.001	1.131	1.273	1.426	1.583
313.15 K	0.5544	0.6324	0.7238	0.8262	0.939	1.061	1.194	1.335	1.483
